Results from patent publication US8148391B2 (Cephalon, Inc., priority 2006, dated 2012).
Where two headings read alike, the source gives them in different places. One block for each compound: values may come before it.

Key:
[1] = target: T1, c-Met (cytoplasmic domain) (Homo sapiens, UniProt P08581); assay: c-Met Kinase Assay (same methods as for ALK, with modifications); assay type: biochemical
T1 construct: 10 ng/mL c-Met (cytoplasmic domain, Invitrogen Corporation #PV3143); purchased Invitrogen Corporation PV3143
Outline: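 Europium-labeled PT66 antibody (Eu-N1) detects substrate phosphorylation on wells coated with phospholipase C-γ at 10 μg/mL. The kinase, the cytoplasmic domain of c-Met at 10 ng/mL, starts the reaction, which proceeds 15 minutes at 37° C.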

[2] = target: T2, baculovirus-expressed ALK (Homo sapiens, UniProt Q9UM73); assay: ALK Kinase Assay (ELISA-type, time-resolved fluorescence); assay type: biochemical
T2 construct: host or cells: baculovirus expression system
Outline: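 Plates coated with phospholipase C-γ substrate (10 μg/mL in TBS); reaction started with 30 ng/ml ALK and run 15 min at 37° C. Phosphorylated substrate detected with Eu-N1-labeled PT66 antibody. IC50 from sigmoidal variable-slope fit of percent inhibition vs log concentration.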

[3] = c-Met kinase inhibition, 1 μM ATP (Km level), read-out: cMet Activity
[4] = ALK kinase inhibition, 1 μM ATP (Km level), read-out: ALK Activity
[5] = 1 μM ATP (Km level), read-out: cMet Activity (c-Met Kinase Inhibition, IC50)
[6] = 1 μM ATP (Km level), read-out: ALK Activity (ALK Kinase Inhibition, IC50)
[7] = c-Met kinase inhibition, 1 μM ATP, read-out: cMet Activity
[8] = ALK kinase inhibition, 1 μM ATP, read-out: ALK Activity
[9] = 1 μM ATP (Km level), 10 ng/mL c-Met, read-out: cMet Activity (c-Met kinase inhibition, IC50 class)
[10] = 1 μM ATP (Km level), 30 ng/ml ALK, 37° C., 15 minutes, read-out: ALK Activity (ALK kinase inhibition, IC50 class)

T2 sequence (Q9UM73 19-1620): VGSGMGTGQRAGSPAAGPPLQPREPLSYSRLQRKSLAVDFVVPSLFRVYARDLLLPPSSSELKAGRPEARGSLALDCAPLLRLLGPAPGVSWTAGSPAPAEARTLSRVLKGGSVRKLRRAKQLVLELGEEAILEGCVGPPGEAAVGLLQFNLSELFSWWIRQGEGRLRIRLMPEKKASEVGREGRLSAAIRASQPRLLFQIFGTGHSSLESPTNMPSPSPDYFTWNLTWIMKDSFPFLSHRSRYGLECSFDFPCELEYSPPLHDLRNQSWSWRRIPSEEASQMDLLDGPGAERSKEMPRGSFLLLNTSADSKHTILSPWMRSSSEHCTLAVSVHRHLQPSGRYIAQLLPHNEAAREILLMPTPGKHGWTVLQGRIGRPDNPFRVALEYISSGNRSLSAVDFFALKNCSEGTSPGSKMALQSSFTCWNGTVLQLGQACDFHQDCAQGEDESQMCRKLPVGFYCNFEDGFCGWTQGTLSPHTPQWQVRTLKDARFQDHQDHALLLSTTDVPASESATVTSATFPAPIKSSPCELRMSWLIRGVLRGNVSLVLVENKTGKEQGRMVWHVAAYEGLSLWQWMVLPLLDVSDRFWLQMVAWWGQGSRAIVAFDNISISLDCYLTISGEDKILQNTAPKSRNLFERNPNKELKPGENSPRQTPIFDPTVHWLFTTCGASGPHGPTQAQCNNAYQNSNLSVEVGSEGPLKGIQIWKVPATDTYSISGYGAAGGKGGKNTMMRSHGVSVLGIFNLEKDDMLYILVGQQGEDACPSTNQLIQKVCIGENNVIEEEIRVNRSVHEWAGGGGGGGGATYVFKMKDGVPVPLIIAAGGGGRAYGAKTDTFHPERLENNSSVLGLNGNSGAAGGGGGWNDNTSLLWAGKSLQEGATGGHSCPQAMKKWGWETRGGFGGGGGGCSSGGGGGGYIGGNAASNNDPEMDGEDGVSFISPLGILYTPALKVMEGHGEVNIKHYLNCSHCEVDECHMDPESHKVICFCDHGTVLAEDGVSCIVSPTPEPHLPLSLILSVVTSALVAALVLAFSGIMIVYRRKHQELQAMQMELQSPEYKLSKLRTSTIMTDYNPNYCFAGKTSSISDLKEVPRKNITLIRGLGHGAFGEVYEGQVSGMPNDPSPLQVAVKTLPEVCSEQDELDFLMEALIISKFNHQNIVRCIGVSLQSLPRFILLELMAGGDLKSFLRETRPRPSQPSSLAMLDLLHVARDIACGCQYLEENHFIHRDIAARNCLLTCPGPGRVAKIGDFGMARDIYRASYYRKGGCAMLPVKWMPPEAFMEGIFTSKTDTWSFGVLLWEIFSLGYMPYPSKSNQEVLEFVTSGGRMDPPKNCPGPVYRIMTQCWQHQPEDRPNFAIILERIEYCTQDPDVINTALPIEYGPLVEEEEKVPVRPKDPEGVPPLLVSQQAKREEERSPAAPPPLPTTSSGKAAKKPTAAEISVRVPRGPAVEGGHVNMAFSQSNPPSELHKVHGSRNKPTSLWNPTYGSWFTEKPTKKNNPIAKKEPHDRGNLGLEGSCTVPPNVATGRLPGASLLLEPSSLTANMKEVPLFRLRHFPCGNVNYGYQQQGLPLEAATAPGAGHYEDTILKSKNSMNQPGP
T1 sequence (P08581 956-1390 limits assumed): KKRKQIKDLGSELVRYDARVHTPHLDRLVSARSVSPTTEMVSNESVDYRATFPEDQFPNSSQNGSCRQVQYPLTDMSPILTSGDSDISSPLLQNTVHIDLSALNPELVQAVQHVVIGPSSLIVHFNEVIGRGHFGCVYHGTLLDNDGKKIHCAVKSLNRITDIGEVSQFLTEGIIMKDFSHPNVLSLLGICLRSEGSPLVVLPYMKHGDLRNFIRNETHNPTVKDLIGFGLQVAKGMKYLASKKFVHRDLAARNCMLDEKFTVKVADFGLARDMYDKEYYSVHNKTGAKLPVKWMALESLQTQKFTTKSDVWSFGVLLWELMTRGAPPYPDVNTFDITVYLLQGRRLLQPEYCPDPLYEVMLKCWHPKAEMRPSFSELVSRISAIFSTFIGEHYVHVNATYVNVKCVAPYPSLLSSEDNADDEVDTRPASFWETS

- IC50 [1, 5]: 1000 to 10000 nM
- IC50 [2, 6]: < 100 nM
Compound: Cc1cccc(-c2ccccc2Nc2nc(Nc3ccc4c(c3)C(C)(C)CCC(=O)N4)ncc2Cl)n1 [Example 1008, 7-{5-Chloro-4-[2-(6-methyl-pyridin-2-yl)-phenylamino]-pyrimidin-2-ylamino}-5,5-dimethyl-1,3,4,5-tetrahydro-benzo[b]azepin-2-one]

- IC50 [1, 7]: 100 to 1000 nM
- IC50 [2, 8]: 1000 to 10000 nM
Compound: CNC(=O)c1c(Cl)sc(Cl)c1Nc1nc(Nc2ccc3c(c2)CCOC(=O)N3C)ncc1Cl [Example 1774, 2,5-Dichloro-4-[5-chloro-2-(5-methyl-6-oxo-5,6,8,9-tetrahydro-7-oxa-5-aza-benzocyclohepten-2-ylamino)-pyrimidin-4-ylamino]-thiophene-3-carboxylic acid methylamide]

- IC50 [1, 9]: > 10000 nM
- IC50 [2, 10]: 100 to 1000 nM
Compound: COc1ccc2c(c1Nc1ncc(Cl)c(N[C@@H]3CCCC[C@H]3NS(C)(=O)=O)n1)CCC(NCC(F)F)CC2 (single isomer, unassigned) [Example 1074]

- IC50 [1, 9]: 1000 to 10000 nM
- IC50 [2, 10]: < 100 nM
Compound: CNC(=O)CN1CCc2cc(Nc3ncc(Cl)c(Nc4c(F)cccc4C(=O)NC)n3)c(OC)cc2CC1 [Example 1116, 2-[5-Chloro-2-(8-methoxy-3-methylcarbamoylmethyl-2,3,4,5-tetrahydro-1H-benzo[d]azepin-7-ylamino)-pyrimidin-4-ylamino]-3-fluoro-N-methyl-benzamide]

- IC50 [1, 9]: 1000 to 10000 nM
- IC50 [2, 10]: 100 to 1000 nM
Compound: CCN1C(=O)CCC(C)(C)c2ccc(Nc3ncc(Cl)c(Nc4c(F)cccc4N(C)CCC#N)n3)cc21 [Example 1264, 3-({2-[5-Chloro-2-(1-ethyl-5,5-dimethyl-2-oxo-2,3,4,5-tetrahydro-1H-1-benzazepin-8-ylamino)-pyrimidin-4-ylamino]-3-fluoro-phenyl}-methyl-amino)-propionitrile]

- IC50 [1, 7]: < 100 nM
- IC50 [2, 8]: 1000 to 10000 nM
Compound: CCN1C(=O)CN(C(C)=O)Cc2ccc(Nc3ncc(Cl)c(Nc4c(F)cccc4C(=O)NC)n3)cc21 [Example 1851, 2-[2-(4-Acetyl-1-ethyl-2-oxo-2,3,4,5-tetrahydro-1H-benzo[e][1,4]diazepin-8-ylamino)-5-chloro-pyrimidin-4-ylamino]-3-fluoro-N-methyl-benzamide]

- IC50 [1, 5]: > 10000 nM
- IC50 [2, 6]: < 100 nM
Compound: COc1c(Nc2ncc(Cl)c(Nc3ccccc3S(=O)(=O)N3CCCC3)n2)ccc2c1CCCC(NCCO)C2 (stereo not shown) [Example 964, 2-(2-{5-Chloro-4-[2-(pyrrolidine-1-sulfonyl)-phenylamino]-pyrimidin-2-ylamino}-1-methoxy-6,7,8,9-tetrahydro-5H-benzocyclohepten-6-ylamino)-ethanol]

- IC50 [1, 9]: 1000 to 10000 nM
- IC50 [2, 10]: 1000 to 10000 nM
Compound: CNC(=O)c1ccc(NC(C)=O)cc1Nc1nc(Nc2ccc3c(c2)C(C)(C)CCC(=O)N3)ncc1Cl [Example 1244, 4-Acetylamino-2-[5-chloro-2-(5,5-dimethyl-2-oxo-2,3,4,5-tetrahydro-1H-1-benzazepin-7-ylamino)-pyrimidin-4-ylamino]-N-methyl-benzamide]

- IC50 [1, 7]: 1000 to 10000 nM
- IC50 [2, 8]: < 100 nM
Compound: COc1cc2c(cc1Nc1ncc(Cl)c(Nc3ccccc3S(=O)(=O)N(C)C)n1)CCN(CCOP(=O)(O)O)CC2 [Example 1545, Phosphoric acid mono-(2-{7-[5-chloro-4-(2-dimethylsulfamoyl-phenylamino)-pyrimidin-2-ylamino]-8-methoxy-1,2,4,5-tetrahydro-3-benzazepin-3-yl}-ethyl)ester]

Further lines, the compound ahead of its results:

Compound: CCN1CC2CC(C1)c1cc(Nc3ncc(Cl)c(Nc4ccccc4C(=O)NC)n3)ccc12 (stereo not shown) [Example 156, 2-[5-Chloro-2-(10-ethyl-10-aza-tricyclo[6.3.1.0*2,7*]dodeca-2,4,6-trien-4-ylamino)-pyrimidin-4-ylamino]-N-methyl-benzamide]
- IC50 [1, 3]: < 100 nM
- IC50 [2, 4]: < 100 nM

Compound: NC(=O)[C@@H]1[C@H](Nc2nc(Nc3ccc4c(c3)CCC(N3CCOCC3)CC4)ncc2C(F)(F)F)[C@H]2C=C[C@@H]1C2 (stereo partly drawn) [Example 935, (1S,2S,3R,4R)-3-[2-(7-Morpholin-4-yl-6,7,8,9-tetrahydro-5H-benzocyclohepten-2-ylamino)-5-trifluoromethyl-pyrimidin-4-ylamino]-bicyclo[2.2.1]hept-5-ene-2-carboxylic acid amide]
- IC50 [1, 5]: < 100 nM
- IC50 [2, 6]: < 100 nM

Compound: CNS(=O)(=O)c1ccccc1Nc1nc(Nc2ccc3c(c2)C2CCC3CN(CC#N)C2)ncc1Cl (stereo not shown) [Example 275, 2-[5-Chloro-2-(10-cyanomethyl-10-aza-tricyclo[6.3.2.0*2,7*]trideca-2,4,6-trien-4-ylamino)-pyrimidin-4-ylamino]-N-methyl-benzenesulfonamide]
- IC50 [1, 3]: < 100 nM
- IC50 [2, 4]: < 100 nM

Compound: COc1cc2c(cc1Nc1ncc(Cl)c(N[C@H]3[C@@H](C(N)=O)[C@@H]4C=C[C@H]3C4)n1)N(C)C(=O)CN(CC#N)C2 [Example 744, (1S,2S,3R,4R)-3 [5-Chloro-2-(4-cyanomethyl-7-methoxy-1-methyl-2-oxo-2,3,4,5-tetrahydro-1H-benzo[e][1,4]diazepin-8-ylamino)-pyrimidin-4-ylamino]-bicyclo(2.2.1)hept-5-ene-2-carboxylic acid amide]
- IC50 [1, 5]: > 10000 nM
- IC50 [2, 6]: 100 to 1000 nM

Compound: CCOC(=O)N1C2CCC1c1cc(C(=O)OC)cc(Nc3ncc(Cl)c(Nc4ccccc4C(=O)NC)n3)c1C2 (stereo not shown) [Example 78, 6-[5-Chloro-4-(2-methylcarbamoyl-phenylamino)-pyrimidin-2-ylamino]-12-aza-tricyclo[7.2.1.0*2,7*]dodeca-2(7),3,5-triene-4,12-dicarboxylic acid 12-ethyl ester 4-methyl ester]
- IC50 [1, 3]: 100 to 1000 nM
- IC50 [2, 4]: < 100 nM

Compound: COc1c(Nc2ncc(Cl)c(Nc3ccccc3S(=O)(=O)N3CCCC3)n2)ccc2c1CCC(N1CCCC(O)C1)CC2 (mixture of isomers) [Example 908, 1-(2-{5-Chloro-4-[2-(pyrrolidine-1-sulfonyl)-phenylamino]-pyrimidin-2-ylamino}-1-methoxy-6,7,8,9-tetrahydro-5H-benzocyclohepten-7-yl)-piperidin-3-ol]
- IC50 [1, 5]: 1000 to 10000 nM
- IC50 [2, 6]: < 100 nM

Compound: CCN1CCN(CC)c2cc(Nc3nc(Nc4cc5c(cc4OC)CCN(CC(=O)N(C)C)CC5)ncc3Cl)ccc2C1 [Example 723]
- IC50 [1, 5]: > 10000 nM
- IC50 [2, 6]: < 100 nM

Compound: CNC(=O)c1ccccc1Nc1nc(Nc2ccc3c(c2)NCCN(C)C3=O)ncc1Cl [Example 412, 2-[5-Chloro-2-(4-methyl-5-oxo-2,3,4,5-tetrahydro-1H-benzo[e][1,4]diazepin-8-ylamino)-pyrimidin-4-ylamino]-N-methylbenzamide]
- IC50 [1, 3]: < 100 nM
- IC50 [2, 4]: < 100 nM

Compound: CNC(=O)c1ccccc1Nc1nc(Nc2ccc3c(c2)N(C)CCN(CCOC)C3)ncc1Cl [Example 484, 2-{5-Chloro-2-[4-(2-methoxy-ethyl)-1-methyl-2,3,4,5-tetrahydro-1H-benzo[e][1,4]diazepin-8-ylamino]-pyrimidin-4-ylamino}-N-methyl-benzamide]
- IC50 [1, 3]: < 100 nM
- IC50 [2, 4]: < 100 nM

Compound: Cn1ccnc1-c1ccccc1Nc1nc(Nc2ccc3c(c2)CCC(N2CCOCC2)CC3)ncc1Cl (stereo not shown) [Example 218, 5-Chloro-N*4*-[2-(1-methyl-1H-imidazol-2-yl)-phenyl]-N*2*-(7-morpholin-4-yl-6,7,8,9-tetrahydro-5H-benzocyclohepten-2-yl)-pyrimidine-2,4-diamine]
- IC50 [1, 3]: 100 to 1000 nM
- IC50 [2, 4]: < 100 nM

Compound: Cc1cccnc1-c1ccccc1Nc1nc(Nc2ccc3c(c2)CCC(NCC(F)(F)F)CC3)ncc1Cl (stereo not shown) [Example 657, 5-Chloro-N*4*-[2-(3-methyl-pyridin-2-yl)-phenyl]-N*2*-[7-(2,2,2-trifluoro-ethylamino)-6,7,8,9-tetrahydro-5H-benzocyclohepten-2-yl]-pyrimidine-2,4-diamine]
- IC50 [1, 5]: > 10000 nM
- IC50 [2, 6]: 100 to 1000 nM

Compound: CNC(=O)c1cccc(Nc2nc(Nc3ccc4c(c3)C(C)(C)CCC(=O)N4C)ncc2Cl)c1 [Example 670, 3-[5-Chloro-2-(1,5,5-trimethyl-2-oxo-2,3,4,5-tetrahydro-1H-benzo[b]azepin-7-ylamino)-pyrimidin-4-ylamino]-N-methyl-benzamide]
- IC50 [1, 5]: 1000 to 10000 nM
- IC50 [2, 6]: < 100 nM

Compound: COc1c(Nc2ncc(Cl)c(N[C@H]3[C@@H](C(N)=O)[C@@H]4C=C[C@H]3C4)n2)ccc2c1CCC(N1CCCC(O)C1)CC2 (stereo partly drawn) [Example 910, (1S,2S,3R,4R)-3-{5-Chloro-2-[7-(3-hydroxy-piperidin-1-yl)-1-methoxy-6,7,8,9-tetrahydro-5H-benzocyclohepten-2-ylamino]-pyrimidin-4-ylamino}-bicyclo[2.2.1]hept-5-ene-2-carboxylic acid amide]
- IC50 [1, 5]: > 10000 nM
- IC50 [2, 6]: < 100 nM

Compound: CCN1CCN(CC)c2cc(Nc3ncc(Cl)c(Nc4ccccc4-c4nccn4C)n3)ccc2C1 [Example 715, 5-Chloro-N*2*-(1,4-diethyl-2,3,4,5-tetrahydro-1H-benzo[e][1,4]diazepin-8-yl)-N*4*-[2-(1-methyl-1H-imidazol-2-yl)-phenyl]-pyrimidine-2,4-diamine]
- IC50 [1, 5]: 100 to 1000 nM
- IC50 [2, 6]: < 100 nM
